# Laboratory results published in patent US12600732B2, “Bifunctional compounds for degrading BTK via ubiquitin proteosome pathway” (NURIX THERAPEUTICS, INC., priority 2019, dated 2026).
# Where “and” joins values, the source holds several entries; their conditions need not be identical. Equal values may be shown once.
# Assays:
# [1] = tested on: TMD8 cells; assay: Cell viability assay (CellTiter-Glo), TMD8 cells; details: for EC50: Homo sapiens, TMD8, 72 h; for EMAX (% viable cells): TMD8 cells, treatment time 72 h
# [2] = target: T1, Aiolos (Homo sapiens, UniProt Q96SW2+Q9UKT9); assay: Aiolos degradation in Mantle Cell Lymphoma lines (flow cytometry); assay type: cell-based; details: for DC50: treatment time 24 h; for IMiD activity (degradation of IMiD neo-substrates Ikaros and Aiolos): Mantle Cell Lymphoma lines Mino and Rec-1
# T1 construct: endogenous in cells; host or cells: Mino, Rec-1
# T1 sequence (Q9UKT9 whole entry): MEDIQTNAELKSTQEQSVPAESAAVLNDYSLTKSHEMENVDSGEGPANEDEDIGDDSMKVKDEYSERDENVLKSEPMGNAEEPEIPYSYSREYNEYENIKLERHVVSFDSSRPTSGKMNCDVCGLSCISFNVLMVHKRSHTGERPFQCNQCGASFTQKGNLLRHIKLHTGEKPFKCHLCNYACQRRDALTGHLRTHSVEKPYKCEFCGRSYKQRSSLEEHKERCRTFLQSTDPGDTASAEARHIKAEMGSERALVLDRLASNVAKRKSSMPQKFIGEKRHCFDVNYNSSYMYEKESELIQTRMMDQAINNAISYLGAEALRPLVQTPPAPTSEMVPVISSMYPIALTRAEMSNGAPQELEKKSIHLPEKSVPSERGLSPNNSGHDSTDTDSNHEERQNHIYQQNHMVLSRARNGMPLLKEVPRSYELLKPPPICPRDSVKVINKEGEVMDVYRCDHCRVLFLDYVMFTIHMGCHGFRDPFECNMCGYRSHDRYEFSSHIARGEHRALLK
# T1 sequence (Q96SW2 whole entry): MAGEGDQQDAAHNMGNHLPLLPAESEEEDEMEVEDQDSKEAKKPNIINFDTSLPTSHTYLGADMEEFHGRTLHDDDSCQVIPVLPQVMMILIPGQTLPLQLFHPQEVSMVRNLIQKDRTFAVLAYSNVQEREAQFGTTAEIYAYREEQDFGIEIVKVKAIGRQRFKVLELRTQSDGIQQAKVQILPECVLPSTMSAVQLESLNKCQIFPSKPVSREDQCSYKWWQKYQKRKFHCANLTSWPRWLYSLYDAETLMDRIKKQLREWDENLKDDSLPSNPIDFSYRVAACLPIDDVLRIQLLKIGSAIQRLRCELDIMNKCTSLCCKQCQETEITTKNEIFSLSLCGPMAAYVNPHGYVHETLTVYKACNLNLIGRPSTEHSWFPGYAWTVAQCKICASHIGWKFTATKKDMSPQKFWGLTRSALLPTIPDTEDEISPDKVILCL
# T1 sequence (Q16531 whole entry partner): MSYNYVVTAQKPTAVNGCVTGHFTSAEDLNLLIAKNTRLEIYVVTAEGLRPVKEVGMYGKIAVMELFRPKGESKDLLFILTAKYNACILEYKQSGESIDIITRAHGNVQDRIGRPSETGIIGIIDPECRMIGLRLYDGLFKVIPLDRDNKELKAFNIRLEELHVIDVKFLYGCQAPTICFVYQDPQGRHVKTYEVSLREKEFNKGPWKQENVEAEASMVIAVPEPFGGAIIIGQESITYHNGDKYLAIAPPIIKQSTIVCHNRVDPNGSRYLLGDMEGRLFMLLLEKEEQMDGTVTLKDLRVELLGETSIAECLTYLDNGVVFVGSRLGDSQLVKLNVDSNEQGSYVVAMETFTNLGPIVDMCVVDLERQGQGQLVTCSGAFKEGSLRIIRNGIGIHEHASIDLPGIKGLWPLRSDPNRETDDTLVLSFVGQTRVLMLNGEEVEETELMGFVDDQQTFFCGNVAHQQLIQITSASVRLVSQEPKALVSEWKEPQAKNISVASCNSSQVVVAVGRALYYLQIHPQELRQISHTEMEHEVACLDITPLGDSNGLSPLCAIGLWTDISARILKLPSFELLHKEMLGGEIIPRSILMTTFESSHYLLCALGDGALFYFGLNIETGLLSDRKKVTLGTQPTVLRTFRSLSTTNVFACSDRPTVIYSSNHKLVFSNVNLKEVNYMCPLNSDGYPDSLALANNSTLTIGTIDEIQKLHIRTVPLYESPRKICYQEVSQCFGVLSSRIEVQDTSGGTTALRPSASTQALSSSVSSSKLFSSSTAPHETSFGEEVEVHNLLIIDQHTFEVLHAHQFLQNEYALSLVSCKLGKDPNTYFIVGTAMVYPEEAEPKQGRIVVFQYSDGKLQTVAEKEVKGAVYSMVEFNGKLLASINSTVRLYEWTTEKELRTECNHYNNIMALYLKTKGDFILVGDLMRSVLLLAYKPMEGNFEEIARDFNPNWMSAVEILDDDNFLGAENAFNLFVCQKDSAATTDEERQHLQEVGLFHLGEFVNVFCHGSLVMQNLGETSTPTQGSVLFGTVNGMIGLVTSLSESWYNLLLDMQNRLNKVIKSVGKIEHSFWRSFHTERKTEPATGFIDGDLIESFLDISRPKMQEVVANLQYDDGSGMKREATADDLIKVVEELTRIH
# From the text: Ikaros and Aiolos Degradation in Mantle Cell Lymphoma Lines (Ikaros and Aiolos Flow Cytometry)
# This example evaluates the IMiD activity of CTMs in cellular models of Mantle Cell Lymphoma (MCL). […] These assays are to determine potency of CTMs for degrading IMiD neo-substrates in cellular models of MCL and to generate data to inform efficacy studies in MCL xenografts.
# [3] = tested on: primary human T cells; assay: T cell activation assay, IL-2 secretion (ELISA); assay type: cell-based; details: for IL-2 secretion compared to baseline (anti-CD3/anti-CD28 stimulation alone): primary human T cells
# Procedure, shortened: (§1)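 Primary human T cells stimulated via TCR with anti-CD3/anti-CD28 in the presence of test compound. IL-2 secretion measured by ELISA; surface CD25 and CD69 by flow cytometry. Values are fold-change versus anti-CD3/anti-CD28 stimulation without compound.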
# [4] = tested on: primary human T cells; assay: T cell activation assay, CD25 and CD69 staining (flow cytometry); assay type: cell-based; details: for CD25 Staining Anti-CD3/Anti-CD28 Stimulation / CD69 Staining Anti-CD3/Anti-CD28 Stimulation: fold-change of response relative to baseline; for expression of CD25 and CD69 compared to baseline (anti-CD3/anti-CD28 stimulation alone): primary human T cells
# Procedure, shortened: as §1
# [5] = tested on: Rec-1 cells; assay: Cell viability assay (CellTiter-Glo), Rec-1 cells; assay type: cell-based; details: for EC50: Homo sapiens, Rec1, treatment time 72 h; for EMAX (% viable cells): treatment time 72 h
# From the text: This example evaluates effects of CTM-mediated degradation on cell viability. […] Mino and Rec-1 are models of Mantle Cell Lymphoma, which is sensitive to IMiDs.
# [6] = tested on: TMD8 BTK C481S tumor cells; assay: TMD8 BTK C481S xenograft efficacy study; assay type: in vivo, mouse; details: PO
# Protocol: […] Tumor growth inhibition (% TGI) were calculated on the final day of measurement using the equation [1−(T−T0/C−T0)]×100, where T and C represent the mean size of tumors in the treated (T) and control (C) groups, and T0 refers to the tumor size at randomization.
# This example examines the activity of various BTK CTMs in relevant disease models, including the WT and C481S TMD8 model, which models B cell malignancies with/without inhibitor-driven BTK mutations at C481.
# [7] = Compound plasma exposure in cyno DRF study; assay type: in vivo; details: cynomolgus monkey, po
# [8] = target: BTK (Homo sapiens, UniProt Q06187); assay: BTK degradation (Total BTK HTRF) in Mino cells (Mantle Cell Lymphoma model); assay type: cell-based; design: endogenous in cells; host or cells: TMD8, Mino, Rec-1; details: treatment time 4 h
# Sequence of BTK (Q06187 whole entry): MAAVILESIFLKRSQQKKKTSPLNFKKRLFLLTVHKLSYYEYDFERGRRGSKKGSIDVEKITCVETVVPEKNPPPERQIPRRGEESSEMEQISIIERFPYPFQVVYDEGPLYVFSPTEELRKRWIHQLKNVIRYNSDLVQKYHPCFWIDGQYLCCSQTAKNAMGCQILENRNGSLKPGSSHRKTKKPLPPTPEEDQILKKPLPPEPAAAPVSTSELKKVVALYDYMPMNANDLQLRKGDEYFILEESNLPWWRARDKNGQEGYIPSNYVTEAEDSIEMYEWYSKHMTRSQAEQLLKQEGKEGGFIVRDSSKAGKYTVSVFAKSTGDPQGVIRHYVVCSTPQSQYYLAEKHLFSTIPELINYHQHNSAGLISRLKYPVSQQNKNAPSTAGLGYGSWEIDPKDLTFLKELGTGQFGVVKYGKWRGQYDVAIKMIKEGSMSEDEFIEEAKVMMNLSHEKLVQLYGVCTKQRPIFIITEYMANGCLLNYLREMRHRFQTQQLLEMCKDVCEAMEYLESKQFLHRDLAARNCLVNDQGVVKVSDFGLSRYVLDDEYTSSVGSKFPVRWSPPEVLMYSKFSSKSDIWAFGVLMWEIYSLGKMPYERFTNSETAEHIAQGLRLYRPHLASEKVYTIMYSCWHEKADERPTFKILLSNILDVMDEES
# Protocol: BTK levels were determined using Cisbio Total-BTK HTRF (Homologous Time-Resolved Fluorescence) kit (63ADK064PEG) according to the manufacturer's protocol. Briefly, cells were incubated in 1× supplied lysis buffer for 30 minutes. In an opaque white low volume 96-well plate (Cisbio, 66PL96005), cell lysate was combined with two different specific BTK antibodies, one conjugated with Eu^3+-Cryptate FRET donor and one conjugated with d2 FRET acceptor. Assay controls include wells containing cell lysate with only the Eu^3+-Cryptate FRET donor antibody and wells containing both HTRF antibodies and lysis buffer without cells or control lysate provided by Cisbio. HTRF ratio was calculated as (acceptor signal at 665 nm/donor signal at 620 nm)×10^4. Background HTRF levels were determined from the control well containing the donor, but no acceptor, antibody. Background HTRF levels were subtracted from all samples. Readouts were reported as HTRF levels relative to HTRF levels of DMSO-treated cells. Four-parameter non-linear regressions were performed in GraphPad Prism 7.02 to obtain DC50 values.
# BTK Degradation (Total BTK HTRF) at Four Hours in Mino Cells
# This example evaluates the potency of CTMs in a model of Mantle Cell Lymphoma (MCL). To evaluate potential therapeutic indications, BTK CTMs were assayed in models of Mantle Cell Lymphoma as with the TMD8 cells (ABC-DLBCL) above. Tested CTMs had similar potencies for BTK degradation in the MCL cell lines (Mino and Rec-1) and TMD8 cells.
# [9] = 1.4 nM, fold-change of response relative to baseline
# [10] = 37 nM, fold-change of response relative to baseline
# [11] = 333 nM, fold-change of response relative to baseline (stimulation without compound)
# [12] = 30 mg/kg, QD, 23 days of dosing
# [13] = 10 mg/kg, 10 mg/kg PO, 1 day of dosing
# [14] = 30 mg/kg, 30 mg/kg PO, 1 day of dosing
# [15] = 100 mg/kg, 100 mg/kg PO, 1 day of dosing
# [16] = 100 mg/kg, 100 mg/kg PO, 14 days of dosing
# [17] = 10 mg/kg, QD, 23 days of dosing
# [18] = 10 mg/kg, QD, 24 days of dosing
# [19] = 30 mg/kg, QD, 24 days of dosing
# [20] = 90 mg/kg, QD, 24 days of dosing
DC50 ([2]; Mino cells) [nM],DC50 ([2]; Rec-1 cells) [nM],"AUC [7, 13] [µM·h]","AUC [7, 14] [µM·h]","Cmax [7, 15] [nM]","AUC [7, 16] [µM·h]",Compound,EC50 [1] [nM],EMAX (% viable cells) [1] [%],"IL-2 Secretion Anti-CD3/Anti-CD28 Stimulation [3, 9]","IL-2 Secretion Anti-CD3/Anti-CD28 Stimulation [3, 10]","IL-2 Secretion Anti-CD3/Anti-CD28 Stimulation [3, 11]",CD25 Staining Anti-CD3/Anti-CD28 Stimulation ([4]; 1.4 nM),CD69 Staining Anti-CD3/Anti-CD28 Stimulation ([4]; 1.4 nM),CD25 Staining Anti-CD3/Anti-CD28 Stimulation ([4]; 37 nM),CD69 Staining Anti-CD3/Anti-CD28 Stimulation ([4]; 37 nM),CD25 Staining Anti-CD3/Anti-CD28 Stimulation ([4]; 333 nM),CD69 Staining Anti-CD3/Anti-CD28 Stimulation ([4]; 333 nM),EC50 [5] [nM],EMAX (% viable cells) [5] [%],"Tumor Growth Inhibition (relative to vehicle) [6, 12]",further results
–,–,–,–,–,–,CN1CCN([C@@H]2CCCN(c3cnc(C(N)=O)c(Nc4ccc(C5CCN(CC6CCN(c7ccc(-c8nn(C9CCC(=O)NC9=O)c(=O)n8C)cc7)CC6)CC5)cc4)n3)C2)C1=O (stereo partly shown) [Compound 121],1.54,28,–,–,–,–,–,–,–,–,–,–,–,–,–
100,70,0.148,0.268,22.6,1.52,CN1CCN([C@@H]2CCCN(c3cnc(C(N)=O)c(Nc4ccc(C5CCN(C[C@H]6CCN(c7ccc8c(c7)C(=O)N(C7CCC(=O)NC7=O)C8=O)C6)CC5)cc4)n3)C2)C1=O (stereo partly shown) [Compound 44],3.73,15,1.43,3.49,3.75,1.25,1.21,0.86,0.85,0.52,0.60,0.82,37,48% and 51% and 36%,"IL-2 secretion compared to baseline (anti-CD3/anti-CD28 stimulation alone) [3]: increased IL-2 secretion but not to the level observed with IMiDs; expression of CD25 and CD69 compared to baseline (anti-CD3/anti-CD28 stimulation alone) [4]: unchanged or decreased levels; Tumor Growth Inhibition (relative to vehicle) ([6]; 5 mg/kg, BID, 23 days of dosing): 65%; Tumor Growth Inhibition (relative to vehicle) ([6]; 15 mg/kg, BID, 23 days of dosing): 62%; Tumor Growth Inhibition (relative to vehicle) ([6]; 30 mg/kg, BID, 23 days of dosing): 70% and 78%; Tumor Growth Inhibition (relative to vehicle) ([6]; 60 mg/kg, QD, 23 days of dosing): 70%; DC50 [8]: 0.56 nM"
> 2000,> 2000,0.172,0.582,96,3.84,CN1CCN([C@H]2CCCN(c3cnc(C(N)=O)c(Nc4ccc(C5CCN(CC6CCN(c7ccc(C(=O)NC8CCC(=O)NC8=O)nc7)CC6)CC5)cc4)n3)C2)C1=O (stereo partly shown) [Compound 130],1.5,27,1.19,1.42,2.02,1.02,1.00,0.98,0.96,0.55,0.55,155,63,79%,"IMiD activity (degradation of IMiD neo-substrates Ikaros and Aiolos) [2]: not others; Tumor Growth Inhibition (relative to vehicle) [6, 17]: 58%; Tumor Growth Inhibition (relative to vehicle) [6, 18]: 90%; Tumor Growth Inhibition (relative to vehicle) [6, 19]: 100%; Tumor Growth Inhibition (relative to vehicle) [6, 20]: 100%; DC50 [8]: 0.58 nM"
–,–,–,–,–,–,CN1CCN([C@@H]2CCCN(c3cnc(C(N)=O)c(Nc4ccc(C5CCN(CC6CCN(c7ccc8c(=O)n(C9CCC(=O)NC9=O)ccc8c7)CC6)CC5)cc4)n3)C2)C1=O (stereo partly shown) [Compound 72],0.429,26,–,–,–,–,–,–,–,–,–,–,–,–,–

Compound,DC50 ([2]; Mino cells) [nM],DC50 ([2]; Rec-1 cells) [nM],"AUC [7, 13] [µM·h]","AUC [7, 14] [µM·h]","Cmax [7, 15] [nM]","AUC [7, 16] [µM·h]",EC50 [1] [nM],EMAX (% viable cells) [1] [%],"IL-2 Secretion Anti-CD3/Anti-CD28 Stimulation [3, 9]","IL-2 Secretion Anti-CD3/Anti-CD28 Stimulation [3, 10]","IL-2 Secretion Anti-CD3/Anti-CD28 Stimulation [3, 11]",CD25 Staining Anti-CD3/Anti-CD28 Stimulation ([4]; 1.4 nM),CD69 Staining Anti-CD3/Anti-CD28 Stimulation ([4]; 1.4 nM),CD25 Staining Anti-CD3/Anti-CD28 Stimulation ([4]; 37 nM),CD69 Staining Anti-CD3/Anti-CD28 Stimulation ([4]; 37 nM),CD25 Staining Anti-CD3/Anti-CD28 Stimulation ([4]; 333 nM),CD69 Staining Anti-CD3/Anti-CD28 Stimulation ([4]; 333 nM),EC50 [5] [nM],EMAX (% viable cells) [5] [%],"Tumor Growth Inhibition (relative to vehicle) [6, 12]",further results
NC(=O)c1ncc(N2CCCCC2)nc1Nc1ccc(C2CCN(C[C@@H]3CCN(c4ccc5c(c4)C(=O)N(C4CCC(=O)NC4=O)C5=O)C3)CC2)cc1 (stereo partly shown) [Compound 149],87,81,0.386,0.72,76,2.66,9.62,7,1.86,3.63,4.24,1.31,1.22,1.02,0.93,0.61,0.63,0.17,24,29%,"IMiD activity (degradation of IMiD neo-substrates Ikaros and Aiolos) [2]: demonstrate IMiD activity; IL-2 secretion compared to baseline (anti-CD3/anti-CD28 stimulation alone) [3]: increased IL-2 secretion but not to the level observed with IMiDs; expression of CD25 and CD69 compared to baseline (anti-CD3/anti-CD28 stimulation alone) [4]: unchanged or decreased levels; Tumor Growth Inhibition (relative to vehicle) [6, 17]: 27%; Tumor Growth Inhibition (relative to vehicle) [6, 18]: 17%; Tumor Growth Inhibition (relative to vehicle) [6, 19]: 43%; Tumor Growth Inhibition (relative to vehicle) [6, 20]: 59%; DC50 [8]: 5.9 nM"
